# Measurements reported in EP4385508A1, “FURAN FATTY ACIDS FOR ENHANCING MUSCLE MASS” (Centre de Coopération Internationale en Recherche …, priority 2022, dated 2024).
# Key:
# myosin heavy chains = experiment: Myosin heavy chain gene expression in quadriceps of supplemented C57Bl6 mice; format: in vivo; settings: 20mg/kg oral gavage
# Protocol: (§1) Male C57Bl/6J wild-type mice were obtained from Janvier at 12 weeks of age and were randomly assigned to one of the two groups based on body weight. Mice were housed 2 per cage and maintained on a 12-hour light/dark cycle (lights on at 7:30 pm). Food and water were provided ad libitum. Enrichment (nesting cotton squares) was provided in each cage. Mice were treated once daily by oral gavage with vehicle (50% PEG-400, 0.5% Tween 80, and 49.5% distilled water) or FuFA-F2 (20 mg/kg). All animal experiments were performed according to European directives (86/609/CEE and 2010/63/CEE) and approved by the regional animal experimentation ethics committe: Région Languedoc-Roussillon (No36). Our institutional guidelines for the care and use of laboratory animals were observed. […]
# The PCR overall efficiency (E) was calculated from the slopes of the standard curves according to the equation E = [10^(-1/slope)] - 1, and this value was higher than 95% for all assays. The relative abundance of each sample was then normalized according to the equation: relative quantity = 2^- […]Ct. All of the experiments were performed according to the minimum information for publication of quantitative real-time PCR experiment (MIQE) guidelines (Bustin et al., 2009, Clin Chem, Vol. 55(4) : 611-622; Schmittgen et al., 2008, Net Protoc, Vol. 3(6) : 1101-1108). […]
# C57Bl6 mice = experiment: Oral gavage supplementation in C57Bl6 mice: food intake, body weight, body composition (EchoMRI), muscle weight; format: in vivo; settings: 3 and a half weeks
# Protocol: Male C57Bl/6J wild-type mice were obtained from Janvier at 12 weeks of age and were randomly assigned to one of the two groups based on body weight. Mice were housed 2 per cage and maintained on a 12-hour light/dark cycle (lights on at 7:30 pm). Food and water were provided ad libitum. Enrichment (nesting cotton squares) was provided in each cage. Mice were treated once daily by oral gavage with vehicle (50% PEG-400, 0.5% Tween 80, and 49.5% distilled water) or FuFA-F2 (20 mg/kg). All animal experiments were performed according to European directives (86/609/CEE and 2010/63/CEE) and approved by the regional animal experimentation ethics committe: Région Languedoc-Roussillon (No36). Our institutional guidelines for the care and use of laboratory animals were observed. Our animal facility is approved by the Departmental Veterinary Services (No. E34-172-10, 2019/03/04) and the Ministry of Research (DUO No. 7053, 2020/02/26). according to the European Directive 210-63-EU, mice were observed daily for the general health status and mortality scoring.
# To investigate in vivo the potential impact a furan-containing compound under the form of a triacylgycerol of FuFA-F2 on muscle characteristics, C57Bl6 mice were supplemented by oral gavage with vehicle or FuFA-F2 (20mg/kg) for 3 and a half weeks (Fig. 6A). […] However, fat mass was similar between the two groups (Fig. 6E).
# complex IV = experiment: Mitochondrial complex IV activity in quadriceps of supplemented C57Bl6 mice; format: in vivo; settings: 20mg/kg oral gavage, vs control
# Protocol: as §1, with “(No36).” for “(No36). Our institutional guidelines for the care and use of laboratory animals were observed.”
# (§2) Mitochondrial respiratory complex activities were determined as previously described (Casas et al., 2008, PloS ONE, Vol. 3(6) : e2501). Citrate synthase (CS) activity was measured according to Srere (Srere et al., 1967, Science, Vol. 158(3803) : 936-937) by following the color formation of 5-thio-2-nitrobenzoic acid at 412 nm. The enzymatic activity of complex IV (cytochrome c oxidase) was measured according to Wharton and Tzagoloff (Wharton et al., 1967, Methods in Enzymology, Vol. 10, Edn Elsevier BV, Amsterdam, The Netherlands), a spectrophotometer following the oxidation of reduced cytochrome c at 550 nm, pH 7.4, and 37 °C. […]
# [1] = test system: complex IV (cytochrome c oxidase); experiment: Complex IV activity of C2C12 myotubes; format: cell-based; settings: Mus musculus, C2C12, 72 h, 3 days, change vs control, trend p<0.07
# Protocol: (§3) Mouse myoblasts of the C2C12 cell line (ATCC) were seeded at a plating density of 7000 cells/cm2 in 6-well plates. They were grown in DMEM high glucose (4.5g/l) supplemented with gentamycin (50 µg/mL), amphotericin (50 µg/mL), and fetal calf serum (10%). Terminal differentiation was induced at cell confluence by lowering the medium serum concentration (0.5%).
# (§4) When indicated, FuFA-F2 was added to the culture medium at the indicated concentration. For the differentiation studies, FuFA-F2 was added at the confluence at the same time as the change in media condition. Three doses of FuFA-F2 were studied at a final concentration of 1, 10, or 50 µM. Human insulin was used at a concentration of 100 nM.
# as §2, with “°C. Cytochrome c was reduced with sodium dithionite.” for “°C.”
# C2C12 myotubes = experiment: Total protein content (protein accretion) in C2C12 myotubes; format: cell-based, Mouse; settings: whatever the dose (1, 10, 50 µM), 3 days of supplementation, vs control
# Protocol: as §3, §4
# Protein levels were assessed by Western blotting. Total proteins were measured using the Bio-Rad protein assay (Hercules, CA, USA) according to the manufacturer's instructions. Total proteins were lysed in RIPA buffer (20mM Tris, 150mM NaCl, 1mM EDTA, 1% NP40, pH 7.5 + complete cocktail protease inhibitors + Pierce phosphatase inhibitors tablet). 40 µg of cell extracts were loaded and blotted onto a nitrocellulose membrane. The membranes were washed, blocked with 5% nonfat milk and incubated in primary antibody overnight at 4°C. […]
# [2] = 20mg/kg oral gavage once daily, triacylglycerol of FuFA-F2, vs vehicle
# [3] = 20mg/kg oral gavage, vs vehicle
compound,measurement,setting,value
CCCCCc1cc(C)c(CCCCCCCCC(=O)O)o1 [FuFA-F2],MyHCIIa expression at the expense of MyHCIIb,myosin heavy chains,trend towards an increase
same,expression of the different myosin heavy chains,myosin heavy chains; treated vs not treated,did not indicate any significant difference
same,body weight,C57Bl6 mice; [2],significantly higher
same,food intake,C57Bl6 mice; [2],ate more
same,weight of the gastrocnemius,C57Bl6 mice; [3],significantly increased
same,weight of the quadriceps,C57Bl6 mice; [3],significantly increased
same,fat mass,"C57Bl6 mice; EchoMRI, 20mg/kg oral gavage, between the two groups",similar
same,lean mass,"C57Bl6 mice; EchoMRI, 20mg/kg oral gavage, vs control mice",greater
same,complex IV activity of mitochondrial respiratory chain complexes,complex IV,significant increase
same,activation at 10 µM,[1],60%
same,total protein content in C2C12 myotubes,C2C12 myotubes,significantly increase
